In BindingDB's records for doi:10.1016/j.bioorg.2014.11.005 (Charles University In Prague, 2015):

Columns and labels:
[1] = target: Carboxylic ester hydrolase (Equus caballus, UniProt Q9N1N9); assay: Ellman's Method
[2] = target: Acetylcholinesterase (Electrophorus electricus, UniProt O42275); assay: Ellman's Method
Sequence of Acetylcholinesterase (O42275 whole entry): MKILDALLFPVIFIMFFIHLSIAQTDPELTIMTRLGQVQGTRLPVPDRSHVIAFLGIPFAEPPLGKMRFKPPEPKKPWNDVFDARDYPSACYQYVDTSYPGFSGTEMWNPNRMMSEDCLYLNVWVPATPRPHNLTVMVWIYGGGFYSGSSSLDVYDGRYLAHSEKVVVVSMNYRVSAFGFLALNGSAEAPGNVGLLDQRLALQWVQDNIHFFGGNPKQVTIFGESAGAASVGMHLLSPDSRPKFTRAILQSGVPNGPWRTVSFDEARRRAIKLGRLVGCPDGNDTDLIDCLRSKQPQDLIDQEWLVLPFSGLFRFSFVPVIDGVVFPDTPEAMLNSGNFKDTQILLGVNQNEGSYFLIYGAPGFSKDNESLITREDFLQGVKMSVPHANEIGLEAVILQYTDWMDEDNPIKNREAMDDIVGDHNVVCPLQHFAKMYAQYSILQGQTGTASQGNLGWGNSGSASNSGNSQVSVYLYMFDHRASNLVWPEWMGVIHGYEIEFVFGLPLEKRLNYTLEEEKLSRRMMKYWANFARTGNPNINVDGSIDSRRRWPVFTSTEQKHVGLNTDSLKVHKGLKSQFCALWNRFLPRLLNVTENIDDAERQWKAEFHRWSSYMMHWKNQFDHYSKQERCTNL

Sequence of Carboxylic ester hydrolase (Q9N1N9 whole entry): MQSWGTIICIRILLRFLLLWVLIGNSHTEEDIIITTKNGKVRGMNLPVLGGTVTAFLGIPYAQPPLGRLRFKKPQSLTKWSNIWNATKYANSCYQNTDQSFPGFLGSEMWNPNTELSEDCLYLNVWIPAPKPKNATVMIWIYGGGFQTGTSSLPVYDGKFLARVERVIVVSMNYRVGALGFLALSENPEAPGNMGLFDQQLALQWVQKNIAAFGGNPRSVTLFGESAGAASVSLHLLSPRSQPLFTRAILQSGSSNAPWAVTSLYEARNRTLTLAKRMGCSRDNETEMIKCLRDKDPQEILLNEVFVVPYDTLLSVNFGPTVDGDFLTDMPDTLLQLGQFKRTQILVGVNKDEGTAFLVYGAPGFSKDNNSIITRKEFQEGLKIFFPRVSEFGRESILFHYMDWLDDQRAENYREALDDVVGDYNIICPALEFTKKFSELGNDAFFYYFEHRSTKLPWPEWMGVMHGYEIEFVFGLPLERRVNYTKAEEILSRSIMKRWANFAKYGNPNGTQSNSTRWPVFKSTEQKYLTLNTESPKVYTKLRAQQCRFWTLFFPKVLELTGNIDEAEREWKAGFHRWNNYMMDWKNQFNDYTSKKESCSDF

Compound | IC50 [1] | IC50 [2]
CCOP(=O)(OCC)Oc1cc(Cl)ccc1C(=O)Nc1cccc(Br)c1 [2-[(3-bromophenyl)carbamoyl]-5-chlorophenyl diethyl phosphate (20)] | 1.77 µM | 35.4 µM
CCOP(=O)(OCC)Oc1cc(Cl)ccc1C(=O)Nc1ccc(Br)cc1 [2-[(4-bromophenyl)carbamoyl]-5-chlorophenyl diethyl phosphate (23)] | 8.76 µM | 55.1 µM
CCOP(=O)(OCC)Oc1ccc(Cl)cc1C(=O)Nc1cccc(Br)c1 [2‐[(3‐bromophenyl)carbamoyl]‐4‐chlorophenyl  diethyl phosphate (16)] | 16.9 µM | 63.3 µM
CCOP(=O)(OCC)Oc1ccc(Cl)cc1C(=O)Nc1ccc(Br)cc1 [2‐[(4‐bromophenyl)carbamoyl]‐4‐chlorophenyl  diethyl phosphate (14)] | 40.2 µM | 59.2 µM
CCOP(=O)(OCC)Oc1ccc(Br)cc1C(=O)Nc1ccc(Cl)c(Cl)c1 [4‐bromo‐2‐[(3,4‐dichlorophenyl)carbamoyl]phenyl  diethyl phosphate (4)] | 49.6 µM | 55.2 µM
CCOP(=O)(OCC)Oc1ccc(Br)cc1C(=O)Nc1cccc(Br)c1 [4‐bromo‐2‐[(3‐bromophenyl)carbamoyl]phenyl diethyl  phosphate (7)] | 18 µM | 70.3 µM
CCOP(=O)(OCC)Oc1ccc(Br)cc1C(=O)Nc1cccc(Cl)c1 [4‐bromo‐2‐[(3‐chlorophenyl)carbamoyl]phenyl  diethyl phosphate (2)] | 24.4 µM | 79.9 µM
CCOP(=O)(OCC)Oc1ccc(Br)cc1C(=O)Nc1cccc(F)c1 [4‐bromo‐2‐[(3‐fluorophenyl)carbamoyl]phenyl  diethyl phosphate (1)] | 68.3 µM | 69.8 µM
CCOP(=O)(OCC)Oc1ccc(Br)cc1C(=O)Nc1ccc(Br)cc1 [4‐bromo‐2‐[(4‐bromophenyl)carbamoyl]phenyl diethyl  phosphate (8)] | 13 µM | 50.8 µM
CCOP(=O)(OCC)Oc1ccc(Br)cc1C(=O)Nc1ccc(Cl)cc1 [4‐bromo‐2‐[(4‐chlorophenyl)carbamoyl]phenyl  diethyl phosphate (3)] | 19.9 µM | 45.5 µM
CCOP(=O)(OCC)Oc1ccc(Br)cc1C(=O)Nc1ccc(F)cc1 [4‐bromo‐2‐[(4‐fluorophenyl)carbamoyl]phenyl  diethyl phosphate (9)] | 22.7 µM | 53.7 µM
CCOP(=O)(OCC)Oc1ccc(Br)cc1C(=O)Nc1cccc(C(F)(F)F)c1 [4‐bromo‐2‐{[3‐ (trifluoromethyl)phenyl]carbamoyl}phenyl diethyl  phosphate (5)] | 14.3 µM | 46.1 µM
CCOP(=O)(OCC)Oc1ccc(Br)cc1C(=O)Nc1ccc(C(F)(F)F)cc1 [4‐bromo‐2‐{[4‐ (trifluoromethyl)phenyl]carbamoyl}phenyl diethyl  phosphate (6)] | 10.3 µM | 56.7 µM
CCOP(=O)(OCC)Oc1ccc(Cl)cc1C(=O)Nc1ccc(Cl)c(Cl)c1 [4‐chloro‐2‐[(3,4‐dichlorophenyl)carbamoyl]phenyl  diethyl phosphate (15)] | 40.3 µM | 80.9 µM
CCOP(=O)(OCC)Oc1ccc(Cl)cc1C(=O)Nc1cccc(Cl)c1 [4‐chloro‐2‐[(3‐chlorophenyl)carbamoyl]phenyl  diethyl phosphate (10)] | 28.1 µM | 64.3 µM
CCOP(=O)(OCC)Oc1ccc(Cl)cc1C(=O)Nc1cccc(F)c1 [4‐chloro‐2‐[(3‐fluorophenyl)carbamoyl]phenyl  diethyl phosphate (12)] | 31.6 µM | 61.1 µM
CCOP(=O)(OCC)Oc1ccc(Cl)cc1C(=O)Nc1ccc(Cl)cc1 [4‐chloro‐2‐[(4‐chlorophenyl)carbamoyl]phenyl  diethyl phosphate (11)] | 42.1 µM | 60.9 µM
CCOP(=O)(OCC)Oc1ccc(Cl)cc1C(=O)Nc1ccc(F)cc1 [4‐chloro‐2‐[(4‐fluorophenyl)carbamoyl]phenyl  diethyl phosphate (13)] | 20.5 µM | 48.5 µM
CCOP(=O)(OCC)Oc1ccc(Cl)cc1C(=O)Nc1cccc(C(F)(F)F)c1 [4‐chloro‐2‐{[3‐ (trifluoromethyl)phenyl]carbamoyl}phenyl diethyl  phosphate (17)] | 24.8 µM | 51.5 µM
CCOP(=O)(OCC)Oc1ccc(Cl)cc1C(=O)Nc1ccc(C(F)(F)F)cc1 [4‐chloro‐2‐{[4‐ (trifluoromethyl)phenyl]carbamoyl}phenyl diethyl  phosphate (18)] | 20.9 µM | 41.6 µM
CCOP(=O)(OCC)Oc1cc(Cl)ccc1C(=O)Nc1ccc(Cl)c(Cl)c1 [5-chloro-2-[(3,4-dichlorophenyl)carbamoyl]phenyl diethyl phosphate (25)] | 0.903 µM | 45.5 µM
CCOP(=O)(OCC)Oc1cc(Cl)ccc1C(=O)Nc1cccc(Cl)c1 [5-chloro-2-[(3-chlorophenyl)carbamoyl]phenyl diethyl phosphate (19)] | 3.68 µM | 41.1 µM
CCOP(=O)(OCC)Oc1cc(Cl)ccc1C(=O)Nc1cccc(F)c1 [5-chloro-2-[(3-fluorophenyl)carbamoyl]phenyl diethyl phosphate (21)] | 11.5 µM | 60.2 µM
CCOP(=O)(OCC)Oc1cc(Cl)ccc1C(=O)Nc1ccc(Cl)cc1 [5-chloro-2-[(4-chlorophenyl)carbamoyl]phenyl diethyl phosphate (24)] | 5.01 µM | 60.9 µM
CCOP(=O)(OCC)Oc1cc(Cl)ccc1C(=O)Nc1ccc(F)cc1 [5-chloro-2-[(4-fluorophenyl)carbamoyl]phenyl diethyl phosphate (22)] | 4.43 µM | 80.8 µM
CCOP(=O)(OCC)Oc1cc(Cl)ccc1C(=O)Nc1cccc(C(F)(F)F)c1 [5-chloro-2-{[3-(trifluoromethyl)phenyl]carbamoyl}phenyl diethyl phosphate (26)] | 3.53 µM | 71.9 µM
CCOP(=O)(OCC)Oc1cc(Cl)ccc1C(=O)Nc1ccc(C(F)(F)F)cc1 [5-chloro-2-{[4-(trifluoromethyl)phenyl]carbamoyl}phenyl diethyl phosphate (27)] | 9.84 µM | 86.3 µM
